Experimental data taken from ChEMBL document CHEMBL1150724, “In vitro antiviral activity of dammar resin triterpenoids” (J Nat Prod, 1987).
Values after ≈ are worked out from the molar mass of the structure shown.

What was measured:
Human alphaherpesvirus 1 = test: Antiviral activity against HSV1 MacIntyre replication in african green monkey Vero cells assessed as inhibition of virus-induced cytopathic effect after 48 hrs; type: functional, organism-based; conditions: Human alphaherpesvirus 1, MacIntyre
Human alphaherpesvirus 2 = test: Antiviral activity against HSV2 MS replication infected in african green monkey Vero cells assessed as inhibition of virus-induced cytopathic effect after 48 hrs; type: functional, organism-based; conditions: Human alphaherpesvirus 2, MS

SMILES	IC50 (Human alphaherpesvirus 1) [µg/mL]	IC50 (Human alphaherpesvirus 2) [µg/mL]
C=C(C)[C@@H]1CC[C@]2(C)[C@H](CC[C@@H]3[C@@H]([C@@](C)(O)CCC=C(C)C)CC[C@]32C)[C@@]1(C)CCC(=O)O [DAMMARENOLIC ACID]	3 (≈ 6.54 µM)	2 (≈ 4.36 µM)
C=C(C)[C@@H]1CC[C@]2(C)[C@H](CC[C@@H]3[C@@H]([C@]4(C)CC[C@@H](C(C)(C)O)O4)CC[C@]32C)[C@@]1(C)CCC(=O)O [EICHLERIANIC ACID]	7 (≈ 14.7 µM)	8 (≈ 16.9 µM)
CC(C)=CCC[C@](C)(O)[C@H]1CC[C@]2(C)[C@@H]1CC[C@@H]1[C@@]3(C)CC[C@H](O)C(C)(C)[C@@H]3CC[C@]12C	7 (≈ 15.7 µM)	7 (≈ 15.7 µM)
C=C(CCC=C(C)C)[C@H]1CC[C@]2(C)[C@@H]1CC[C@@H]1[C@@]3(C)CC[C@H](O)C(C)(C)[C@@H]3CC[C@]12C [DAMMARADIENOL]	2.5 (≈ 5.86 µM)	3 (≈ 7.03 µM)
C[C@H]1[C@H](C)CC[C@]2(C(=O)O)CC[C@]3(C)C(=CC[C@@H]4[C@@]5(C)CCC(=O)C(C)(C)[C@@H]5CC[C@]43C)[C@H]12 [URSONIC ACID]	2.5 (≈ 5.5 µM)	8 (≈ 17.6 µM)
CC(C)=CCC[C@@](C)(O)[C@H]1CC[C@]2(C)[C@@H]1CC[C@@H]1[C@@]3(C)CCC(=O)C(C)(C)[C@@H]3CC[C@]12C	2 (≈ 4.52 µM)	5 (≈ 11.3 µM)
C=C(C)[C@@H]1CC[C@]2(C)[C@H](CC[C@@H]3[C@@H]([C@]4(C)CC[C@H](C(C)(C)O)O4)CC[C@]32C)[C@@]1(C)CCC(=O)O [SHOREIC ACID]	7 (≈ 14.7 µM)	8 (≈ 16.9 µM)
CC1(C)CC[C@@]23CC[C@]4(C)[C@@](OC2=O)([C@@H]3C1)[C@@H](O)C[C@@H]1[C@@]2(C)CCC(=O)C(C)(C)[C@@H]2CC[C@]14C	5 (≈ 10.6 µM)	5 (≈ 10.6 µM)
CC(C)(O)[C@H]1CC[C@@]2(C)C1CC[C@]1(C)[C@@H]2CC[C@@H]2[C@@]3(C)CCC(=O)C(C)(C)[C@@H]3CC[C@]21C (stereo partly drawn) [HYDROXYHOPANONE]	7 (≈ 15.8 µM)	5 (≈ 11.3 µM)
